In ChEMBL document CHEMBL1157561, “Identification of potent pyrazolo[4,3-h]quinazoline-3-carboxamides as multi-cyclin-dependent kinase inhibitors” (J Med Chem, 2010):
Values after ≈ are worked out from the molar mass of the structure shown.

Legend:
Aurora kinase A = target: T1, Aurora kinase A (Homo sapiens, UniProt O14965); experiment: Inhibition of Aurora A
T1 sequence (O14965 whole entry): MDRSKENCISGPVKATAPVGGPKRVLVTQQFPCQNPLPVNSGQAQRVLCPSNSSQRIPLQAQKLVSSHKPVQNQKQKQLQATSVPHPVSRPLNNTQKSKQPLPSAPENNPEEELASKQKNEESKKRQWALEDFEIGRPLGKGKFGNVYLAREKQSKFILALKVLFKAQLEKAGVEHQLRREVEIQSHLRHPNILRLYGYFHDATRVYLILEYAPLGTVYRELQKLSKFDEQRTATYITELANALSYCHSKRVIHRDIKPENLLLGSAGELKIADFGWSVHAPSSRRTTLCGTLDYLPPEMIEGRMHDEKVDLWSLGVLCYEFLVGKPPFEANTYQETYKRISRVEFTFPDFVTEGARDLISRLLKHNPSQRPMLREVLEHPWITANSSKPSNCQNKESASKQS

A2780 = experiment: Antiproliferative activity against human A2780 cells after 72 hrs by cell-titer-glo assay; assay type: functional, cell-based; details: A2780, 72 h
[1] = Solubility at pH 7.0; assay type: physicochemical; details: buffer
[2] = target: Cyclin-dependent kinase 2/cyclin A (Homo sapiens, UniProt P24941); experiment: Inhibition of CDK2/Cyclin A; assay type: protein-complex assay

Row | SMILES | IC50 (Aurora kinase A) [nM] | IC50 (A2780) [nM] | solubility [1] [µM] | IC50 [2] [nM]
1 | CNC(=O)c1nn(C)c2c1CCc1cnc(NC3CCCCC3)nc1-2 | > 10000 | 8600 | 50 (≈ 17 µg/mL) | –
2 | NC(=O)c1nn(-c2ccccn2)c2c1CCc1cnc(NC3CCCC3)nc1-2 | > 10000 | 2160 | 4.9 (≈ 1.84 µg/mL) | 52
3 | CN1CCN(C(=O)N2CCC(Nc3ncc4c(n3)-c3c(c(C(N)=O)nn3C)CC4)CC2)CC1 | 4710 | 1300 | > 225 | 12
4 | CNC(=O)c1nn(C)c2c1CCc1cnc(NC3CCCC3)nc1-2 | > 10000 | > 10000 | 36 (≈ 11.8 µg/mL) | 97
5 | CCN1CCC(Nc2ncc3c(n2)-c2c(c(C(N)=O)nn2C)CC3)CC1 | > 10000 | 2460 | 221 (≈ 78.6 µg/mL) | 149
6 | CNC(=O)c1nn(C)c2c1CCc1cnc(NC3CCN(C(C)=O)CC3)nc1-2 | > 10000 | > 10000 | > 225 | 32
7 | CNC(=O)c1nn(C2CCN(C)CC2)c2c1CCc1cnc(NC3CCCC3)nc1-2 | > 10000 | 1590 | 182 (≈ 74.5 µg/mL) | 59
8 | NC(=O)c1nn(CCO)c2c1CCc1cnc(NC3CCCC3)nc1-2 | 6040 | 330 | 27 (≈ 9.24 µg/mL) | 8
9 | CNC(=O)c1nn(C)c2c1CCc1cnc(NC3CCN(C(=O)c4ccccc4)CC3)nc1-2 | > 10000 | 822 | 168 (≈ 74.8 µg/mL) | 25
10 | NC(=O)c1nn(Cc2ccccc2)c2c1CCc1cnc(NC3CCCC3)nc1-2 | > 10000 | 840 | < 1 | 23
11 | Cn1nc(C(N)=O)c2c1-c1nc(NCc3ccccn3)ncc1CC2 | 4640 | 5120 | 123 (≈ 41.3 µg/mL) | 87

More lines, now with the values ahead:

Row | IC50 (Aurora kinase A) [nM] | IC50 (A2780) [nM] | solubility [1] [µM] | IC50 [2] [nM] | SMILES
12 | 1920 | 1240 | 222 (≈ 74.5 µg/mL) | 21 | Cn1nc(C(N)=O)c2c1-c1nc(NCc3ccncc3)ncc1CC2
13 | 2310 | 1390 | 138 (≈ 46.3 µg/mL) | 21 | Cn1nc(C(N)=O)c2c1-c1nc(NCc3cccnc3)ncc1CC2
14 | 4600 | 2550 | > 225 | 19 | Cn1nc(C(N)=O)c2c1-c1nc(NCCO)ncc1CC2
15 | 672 | 903 | > 10 | 13 | CC(=O)Nc1ccc(CNc2ncc3c(n2)-c2c(c(C(N)=O)nn2C)CC3)cc1
16 | 890 | 2360 | 138 (≈ 56.9 µg/mL) | 38 | Cn1nc(C(N)=O)c2c1-c1nc(NCc3ccc(S(C)(=O)=O)cc3)ncc1CC2
17 | 1290 | 1580 | 28 (≈ 12.1 µg/mL) | 17 | CN1CCN(c2ccc(CNc3ncc4c(n3)-c3c(c(C(N)=O)nn3C)CC4)cc2)CC1
18 | 4050 | 480 | < 1 | 20 | NC(=O)c1nn(-c2ccccc2)c2c1CCc1cnc(NC3CCCC3)nc1-2
19 | 1000 | 933 | > 10 | 51 | Cn1nc(C(N)=O)c2c1-c1nc(NCc3ccccc3)ncc1CC2
20 | 1140 | 1980 | 4.4 (≈ 1.6 µg/mL) | 66 | COc1cccc(CNc2ncc3c(n2)-c2c(c(C(N)=O)nn2C)CC3)c1
21 | 1450 | 4140 | < 1 | 58 | COc1ccc(CNc2ncc3c(n2)-c2c(c(C(N)=O)nn2C)CC3)cc1
22 | 3060 | 5530 | 29 (≈ 9.93 µg/mL) | 175 | CN(O)C(=O)c1nn(C)c2c1CCc1cnc(NC3CCCC3)nc1-2
23 | 1970 | 70 | 179 (≈ 75.8 µg/mL) | 7 | CC(=O)N1CCC(n2nc(C(N)=O)c3c2-c2nc(NC4CCCC4)ncc2CC3)CC1
24 | 1690 | 567 | < 1 | 81 | Cn1nc(C(N)=O)c2c1-c1nc(NCc3ccc(Br)cc3)ncc1CC2
